Measured values reported in PubChem BioAssay AID2060904 (Molecular Pharmacology Branch, DTP, NCI, 2025).

Tested on: 349418-098-R-PDC complex spheroid viability
Assay: Anticancer human tumor 349418-098-R-PDC patient-derived lung adenocarcinoma cell line growth inhibition [RAS]
Settings: for IC50: curve of first compound; for viability, T/C: stronger effect = lower value
Procedure, shortened: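 Agents were tested in combination matrices in half-log decrements from a top concentration at or near clinical Cmax (10 microM if undetermined). Targets were multi-cell spheroids of tumour lines plus HUVEC and MSC stromal cells.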

[1] = second compound 0.000949 µM, first compound 0.0316 µM
[2] = second compound 0.000949 µM, first compound 0.1 µM
[3] = second compound 0.000949 µM, first compound 0.316 µM
[4] = second compound 0.000949 µM, first compound 1 µM
[5] = second compound 0.003 µM, first compound 0.0316 µM
[6] = second compound 0.003 µM, first compound 0.1 µM
[7] = second compound 0.003 µM, first compound 0.316 µM
[8] = second compound 0.003 µM, first compound 1 µM
[9] = second compound 0.00949 µM, first compound 0.0316 µM
[10] = second compound 0.00949 µM, first compound 0.1 µM
[11] = second compound 0.00949 µM, first compound 0.316 µM
[12] = second compound 0.00949 µM, first compound 1 µM
[13] = second compound 0.03 µM, first compound 0.0316 µM
[14] = second compound 0.03 µM, first compound 0.1 µM
[15] = second compound 0.03 µM, first compound 0.316 µM
[16] = second compound 0.03 µM, first compound 1 µM
[17] = second compound 0.0949 µM, first compound 0.0316 µM
[18] = second compound 0.0949 µM, first compound 0.1 µM
[19] = second compound 0.0949 µM, first compound 0.316 µM
[20] = second compound 0.0949 µM, first compound 1 µM
[21] = second compound 0.3 µM, first compound 0.0316 µM
[22] = second compound 0.3 µM, first compound 0.1 µM
[23] = second compound 0.3 µM, first compound 0.316 µM
[24] = second compound 0.3 µM, first compound 1 µM
[25] = second compound 0.000949 µM, first compound 3.16 µM
[26] = second compound 0.000949 µM, first compound 10 µM
[27] = second compound 0.003 µM, first compound 3.16 µM
[28] = second compound 0.003 µM, first compound 10 µM
[29] = second compound 0.00949 µM, first compound 3.16 µM
[30] = second compound 0.00949 µM, first compound 10 µM
[31] = second compound 0.03 µM, first compound 3.16 µM
[32] = second compound 0.03 µM, first compound 10 µM
[33] = second compound 0.0949 µM, first compound 3.16 µM
[34] = second compound 0.0949 µM, first compound 10 µM
[35] = second compound 0.3 µM, first compound 3.16 µM
[36] = second compound 0.3 µM, first compound 10 µM
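Note: spheroids exposed to compound for seven days before viability readout.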

Compound: CCN1CCN(Cc2ccc(Nc3ncc(F)c(-c4cc(F)c5nc(C)n(C(C)C)c5c4)n3)nc2)CC1 + CCn1c(-c2cccnc2C(C)OC)c2c3cc(ccc31)N1CCOC(CC(NC(=O)C(C(C)C)N(C)C(=O)C3(F)CCN(C(=O)C#CC(C)(C)N(C)C)CC3)C(=O)N3CCCC(N3)C(=O)OCC(C)(C)C2)C1
- IC50 (second compound 0.000949 µM): 0.012 µM
- IC50 (second compound 0.003 µM): 0.0147 µM
- IC50 (second compound 0.00949 µM): 0.0136 µM
- IC50 (second compound 0.03 µM): 0.00864 µM
- IC50 (second compound 0.0949 µM): 0.0098 µM
- IC50 (second compound 0.3 µM): 0.00733 µM
- viability, T/C (second compound 0.000949 µM, first compound 0.00316 µM): 80.1%
- viability, T/C (second compound 0.000949 µM, first compound 0.01 µM): 54.1%
- viability, T/C [1]: 30.6%
- viability, T/C [2]: 22.5%
- viability, T/C [3]: 18.7%
- viability, T/C [4]: 13.1%
- viability, T/C (second compound 0.003 µM, first compound 0.00316 µM): 85.5%
- viability, T/C (second compound 0.003 µM, first compound 0.01 µM): 61%
- viability, T/C [5]: 28%
- viability, T/C [6]: 20.3%
- viability, T/C [7]: 16.8%
- viability, T/C [8]: 13.4%
- viability, T/C (second compound 0.00949 µM, first compound 0.00316 µM): 96%
- viability, T/C (second compound 0.00949 µM, first compound 0.01 µM): 52.2%
- viability, T/C [9]: 39.1%
- viability, T/C [10]: 22.3%
- viability, T/C [11]: 16.1%
- viability, T/C [12]: 14.7%
- viability, T/C (second compound 0.03 µM, first compound 0.00316 µM): 80.5%
- viability, T/C (second compound 0.03 µM, first compound 0.01 µM): 44.6%
- viability, T/C [13]: 29%
- viability, T/C [14]: 21.5%
- viability, T/C [15]: 15.9%
- viability, T/C [16]: 14.4%
- viability, T/C (second compound 0.0949 µM, first compound 0.00316 µM): 73.4%
- viability, T/C (second compound 0.0949 µM, first compound 0.01 µM): 48.7%
- viability, T/C [17]: 34.5%
- viability, T/C [18]: 16.6%
- viability, T/C [19]: 20.6%
- viability, T/C [20]: 12.5%
- viability, T/C (second compound 0.3 µM, first compound 0.00316 µM): 61.5%
- viability, T/C (second compound 0.3 µM, first compound 0.01 µM): 45.5%
- viability, T/C [21]: 33.2%
- viability, T/C [22]: 21.4%
- viability, T/C [23]: 19%
- viability, T/C [24]: 13.5%

Compound: Cc1nc(N2CCC3(CC2)COC(C)C3N)c(CO)nc1Sc1ccnc(N)c1Cl (stereo unspecified) + CCn1c(-c2cccnc2C(C)OC)c2c3cc(ccc31)N1CCOC(CC(NC(=O)C(C(C)C)N(C)C(=O)C3(F)CCN(C(=O)C#CC(C)(C)N(C)C)CC3)C(=O)N3CCCC(N3)C(=O)OCC(C)(C)C2)C1
- IC50 (second compound 0.000949 µM): > 10 µM
- IC50 (second compound 0.003 µM): > 10 µM
- IC50 (second compound 0.00949 µM): > 10 µM
- IC50 (second compound 0.03 µM): > 10 µM
- IC50 (second compound 0.0949 µM): > 10 µM
- IC50 (second compound 0.3 µM): > 10 µM
- viability, T/C [1]: 97.9%
- viability, T/C [2]: 86.4%
- viability, T/C [3]: 102%
- viability, T/C [4]: 103%
- viability, T/C [25]: 101%
- viability, T/C [26]: 89.5%
- viability, T/C [5]: 102%
- viability, T/C [6]: 91.9%
- viability, T/C [7]: 119%
- viability, T/C [8]: 96.7%
- viability, T/C [27]: 97.1%
- viability, T/C [28]: 108%
- viability, T/C [9]: 103%
- viability, T/C [10]: 106%
- viability, T/C [11]: 106%
- viability, T/C [12]: 99.8%
- viability, T/C [29]: 118%
- viability, T/C [30]: 90.5%
- viability, T/C [13]: 119%
- viability, T/C [14]: 107%
- viability, T/C [15]: 99.3%
- viability, T/C [16]: 110%
- viability, T/C [31]: 115%
- viability, T/C [32]: 91.5%
- viability, T/C [17]: 98.5%
- viability, T/C [18]: 98.9%
- viability, T/C [19]: 105%
- viability, T/C [20]: 87.9%
- viability, T/C [33]: 101%
- viability, T/C [34]: 100%
- viability, T/C [21]: 83.7%
- viability, T/C [22]: 89.3%
- viability, T/C [23]: 100%
- viability, T/C [24]: 87.8%
- viability, T/C [35]: 101%
- viability, T/C [36]: 77.4%

Compound: NC1c2ccccc2OC12CCN(c1cnc3c(N4CCCc5ncccc54)n[nH]c3n1)CC2 (stereo unspecified) + CCn1c(-c2cccnc2C(C)OC)c2c3cc(ccc31)N1CCOC(CC(NC(=O)C(C(C)C)N(C)C(=O)C3(F)CCN(C(=O)C#CC(C)(C)N(C)C)CC3)C(=O)N3CCCC(N3)C(=O)OCC(C)(C)C2)C1
- IC50 (second compound 0.000949 µM): > 10 µM
- IC50 (second compound 0.003 µM): > 10 µM
- IC50 (second compound 0.00949 µM): > 10 µM
- IC50 (second compound 0.03 µM): > 10 µM
- IC50 (second compound 0.0949 µM): > 10 µM
- IC50 (second compound 0.3 µM): > 10 µM
- viability, T/C [1]: 78.4%
- viability, T/C [2]: 93.4%
- viability, T/C [3]: 90.7%
- viability, T/C [4]: 97%
- viability, T/C [25]: 108%
- viability, T/C [26]: 75.5%
- viability, T/C [5]: 97.2%
- viability, T/C [6]: 95.3%
- viability, T/C [7]: 91%
- viability, T/C [8]: 99.4%
- viability, T/C [27]: 98.5%
- viability, T/C [28]: 71.7%
- viability, T/C [9]: 108%
- viability, T/C [10]: 95.4%
- viability, T/C [11]: 90.3%
- viability, T/C [12]: 116%
- viability, T/C [29]: 93.6%
- viability, T/C [30]: 59.8%
- viability, T/C [13]: 93.9%
- viability, T/C [14]: 102%
- viability, T/C [15]: 115%
- viability, T/C [16]: 96.8%
- viability, T/C [31]: 98.1%
- viability, T/C [32]: 85%
- viability, T/C [17]: 105%
- viability, T/C [18]: 103%
- viability, T/C [19]: 116%
- viability, T/C [20]: 91.3%
- viability, T/C [33]: 89.7%
- viability, T/C [34]: 59.3%
- viability, T/C [21]: 84.8%
- viability, T/C [22]: 68.8%
- viability, T/C [23]: 102%
- viability, T/C [24]: 90.8%
- viability, T/C [35]: 85.2%
- viability, T/C [36]: 61.4%
